In article PMC9106635, “Stimulation of the atypical chemokine receptor 3 (ACKR3) by a small-molecule agonist attenuates fibrosis in a preclinical liver but not lung injury model” (Cellular and Molecular Life Sciences: CMLS, 2022):

What was measured:
[1] = Compound concentration in liver and lung tissue homogenates (LC-MS/MS); assay type: in vivo, mouse; settings: mean ± sem
Experimental: Pharmacokinetic analysis of plasma samples was performed at GVK BIO Sciences Pvt. Ltd. (Hyderabad, India). The pharmacokinetic properties of compound 18a were determined by subcutaneous administration in male C57BL/6 mice. A 30 mg/kg dose was formulated as a solution in 23% hydroxypropyl-beta-cyclodextrin (HPBCD; w/v) in water. The dose volume was 3 mL/kg. Serial blood samples were collected at 0.5, 1, 2, 4, 6, 8 and 24 h post dosing (n = 3). Plasma concentration of compound 18a was determined by a LC–MS/MS method. Chromatography was performed on a reverse phase column (Kinetex EVO, C18, 50 × 4.6 mm, 5 µ) at a flow rate of 1 mL/minute, using a gradient-elution method. Mobile Phase A was a 10 mM ammonium acetate solution with 0.1% formic acid in water, whereas mobile phase B was a mixture of acetonitrile and methanol (50:50). The gradient started at 5% B ramped up to 95% B over 1 min, held at 95% B for 1.2 min, and then ramped down to 5% B over 0.1 min, and held at 5% B for 1.2 min. The mass spectrometer was operated in positive-ionization mode and Telmisartan was used as internal standard. […] The Cmax, Tmax, AUC and half-life value (t1/2) were determined using standard non-compartmental pharmacokinetic methods. The concentration of compound 18a in liver and lung tissue was determined by LC–MS/MS at Eurofins (Vergeze, France). […] Data are expressed as mean ± sem.

[2] = target: hCXCR4 (Homo sapiens, UniProt P61073); test: Ca2+ mobilization assay, U87.CD4.CXCR4 cells, CXCL12-induced; assay type: cell-based; parameters: expressed in transfected cells; host or cells: U87.CD4.CXCR4; settings: antagonism of CXCL12 response
Chain of hCXCR4 (P61073 whole entry): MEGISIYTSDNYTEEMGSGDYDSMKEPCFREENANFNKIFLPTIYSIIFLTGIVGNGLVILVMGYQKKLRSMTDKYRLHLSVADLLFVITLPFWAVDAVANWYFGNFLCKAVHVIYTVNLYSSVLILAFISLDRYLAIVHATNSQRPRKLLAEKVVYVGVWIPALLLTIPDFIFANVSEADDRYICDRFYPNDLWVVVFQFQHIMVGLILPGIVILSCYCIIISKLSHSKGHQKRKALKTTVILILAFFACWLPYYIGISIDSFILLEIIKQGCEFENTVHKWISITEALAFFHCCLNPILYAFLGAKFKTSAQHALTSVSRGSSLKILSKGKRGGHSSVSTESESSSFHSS
Experimental: The calcium (Ca^2+) mobilization assay was described in detail before. Briefly, U87.CD4.CXCR4 or U87.CD4.CCR5 cells (2 × 10^4 cells per well in DMEM/10% FBS/0.01 M HEPES) were seeded in gelatin-coated (Sigma-Aldrich; 0.1% gelatin in DPBS) black-walled 96-well plates and incubated overnight at 37 °C and 5% CO2. The next day, cells were loaded with the fluorescent Ca^2+ indicator Fluo-2 acetoxymethyl (AM) ester (4 μM final concentration; Abcam) and incubated at RT in the dark for 45 min. Then, cells were washed with assay buffer (see above) and subsequently incubated with different concentrations of compound for ~ 10 min prior to addition of 6.25 nM CXCL12 (in case of CXCR4) or 6.4 nM CCL5 (in case of CCR5). Fluctuations in intracellular Ca^2+ levels were measured in real time by the FLIPR Tetra® device (Molecular Devices) in all 96 wells simultaneously. The response (Relative Light Units, RLUs) over baseline was calculated (ScreenWorks 4.0® software, Molecular Devices) by dividing the RLUs by a base line value measured just before addition of CXCL12 or CCL5, respectively. Inhibition of the Ca^2+ response was determined taking into account negative (i.e., untreated cells without stimulation) and positive (i.e., untreated cells stimulated with either CXCL12 or CCL5) control samples.

[3] = test system: isoproterenol-induced cardiac fibrosis in mice; parameters: method as in PMID 29627981; settings: isoproterenol-induced cardiac injury; cited from earlier work
[4] = Mouse plasma pharmacokinetics after subcutaneous administration; assay type: in vivo; settings: 30 mg/kg subcutaneous
Experimental: Pharmacokinetic analysis of plasma samples was performed at GVK BIO Sciences Pvt. Ltd. (Hyderabad, India). The pharmacokinetic properties of compound 18a were determined by subcutaneous administration in male C57BL/6 mice. A 30 mg/kg dose was formulated as a solution in 23% hydroxypropyl-beta-cyclodextrin (HPBCD; w/v) in water. The dose volume was 3 mL/kg. Serial blood samples were collected at 0.5, 1, 2, 4, 6, 8 and 24 h post dosing (n = 3). Plasma concentration of compound 18a was determined by a LC–MS/MS method. Chromatography was performed on a reverse phase column (Kinetex EVO, C18, 50 × 4.6 mm, 5 µ) at a flow rate of 1 mL/minute, using a gradient-elution method. Mobile Phase A was a 10 mM ammonium acetate solution with 0.1% formic acid in water, whereas mobile phase B was a mixture of acetonitrile and methanol (50:50). The gradient started at 5% B ramped up to 95% B over 1 min, held at 95% B for 1.2 min, and then ramped down to 5% B over 0.1 min, and held at 5% B for 1.2 min. The mass spectrometer was operated in positive-ionization mode and Telmisartan was used as internal standard. Analyst software was used for the data acquisition and chromatographic-peak integration. The Cmax, Tmax, AUC and half-life value (t1/2) were determined using standard non-compartmental pharmacokinetic methods. The concentration of compound 18a in liver and lung tissue was determined by LC–MS/MS at Eurofins (Vergeze, France). Tissues harvested at the endpoint of the efficacy study (day 28 for liver, day 21 for lung), 2 h post the last compound 18a dose, were processed. Around 250 mg of the lateral right liver lobe (n = 3) and ~ 120 mg of the caudal right lung lobe (n = 4) were homogenized in water and precipitated in acetonitrile containing Irbesartan as internal standard. Further analysis was performed via a similar method as described above. Data are expressed as mean ± sem.
Pharmacokinetic parameters were calculated from plasma concentration-time data in male C57BL/6 mice (n=3). Cmax is reported as the mean ± SD.

[5] = mouse, sc, male C57BL/6 mice, plasma

- concentration in lung tissue ([1]; day 21, 2 h after last subcutaneous dose (15 mg/kg BID), n=4): 1703 ± 54 ng/g tissue
- concentration in liver tissue ([1]; day 28, 2 h after last subcutaneous dose (15 mg/kg BID), n=3): 2528 ± 511 ng/g tissue
- IC50 [2]: > 40 µM
- time after administration for which plasma levels exceeded the target value (5.2 ng/mL) ([4]; below target at 24 h): up to 8 h
- AUC [4, 5]: 6700 ng·h/mL
- Tmax [4, 5]: 0.25 h
- half-life [4, 5]: 5.2 h
- Cmax ([4]; mouse, sc, male C57BL/6 mice, plasma, mean ± SD, n=3): 6120 ng/mL
Structure (SMILES): CCc1ccn2ccnc2c1N1CCCN(C(CC(N)=O)C2CCN(C(=O)C3CC4CCC3O4)CC2)CC1 (stereo not drawn) [compound 18a]
- cardiac fibrosis [3]: protect mice from cardiac fibrosis
